One assay concerns the target IRAK4 (Homo sapiens (Human), UniProt Q9NWZ3). Nature of the assay: IRAK-4 biochemical assay, AlphaScreen format (phosphorylation of a biotin labeled peptide). To be noted: 1 nM IRAK4, 1.6 μM peptide, 1 mM ATP, 3.5 h at RT. Here is the method: Biochemical Assay: The biochemical assay is in a AlphaScreen format. The kinase reaction is based on the IRAK-4 phosphorylation of a biotin labeled peptide. The phosphopeptide is incubated with anti-phosphothreonine antibody as well as streptavidin- and protein A-coated beads. Binding of the protein-A coated beads to the antibody and the streptavidin beads to the peptide, leads to an energy transfer from one bead to the other, ultimately producing a luminescent/fluorescent signal.
Generally, the kinase reaction is carried out at 1 nM IRAK4, 1.6 μM peptide, 1 mM ATP in reaction buffer 50 mM Hepes, 60 mM NaCl, 5 mM MgCl2, 0.25 mM MnCl2, 2 mM DTT, 0.01% BSA, 0.01% Tween-20) for 3.5 h at RT.
The compounds described herein were tested for in the above biochemical assay.
(In Alpha technology, singlet oxygen from a donor bead excites a nearby acceptor bead.)

A further assay deals with A549 cells. Briefly: Cell-based assay: IL-6 ELISA quantification in A549 cells stimulated with human IL-1beta. To be noted: 2 ng/ml human IL-1beta overnight. Here is the method:
Cell-based Assay: The cell-based assays is based on IL-6 ELISA quantification. Briefly, A549 cells are cultured in DMEM with 10% FBS medium. When cells reach 80% confluence they are trypsin treated and seeded 180 ul/well in 96-well plate at 2.5×10^4 cells/well. Then, 20 ul of compound serial dilutions (starting at 10 uM, 10 points) are added to the cell plate; incubate for 30 min at 37 C and stimulated with 2 ng/ml human IL-1beta 37 C, 5% CO2 overnight. The next day 100 ul of cell supernatant per well are analyzed on a Human IL-6 Quantikine ELISA kit from R&D Systems.
The compounds described herein were tested for in the above biochemical and cell-based assays.
(In an ELISA, binding on a coated surface is turned into a signal by an enzyme label.)

The next assay deals with primary human astrocytes. To be noted: cited from earlier work.
A further assay relates to astrocytes and microglia. Particulars: cited from earlier work.
For the next assay, the system named is primary human microglia. Particulars: cited from earlier work.

Chain of IRAK4 (Q9NWZ3 whole entry, species assumed): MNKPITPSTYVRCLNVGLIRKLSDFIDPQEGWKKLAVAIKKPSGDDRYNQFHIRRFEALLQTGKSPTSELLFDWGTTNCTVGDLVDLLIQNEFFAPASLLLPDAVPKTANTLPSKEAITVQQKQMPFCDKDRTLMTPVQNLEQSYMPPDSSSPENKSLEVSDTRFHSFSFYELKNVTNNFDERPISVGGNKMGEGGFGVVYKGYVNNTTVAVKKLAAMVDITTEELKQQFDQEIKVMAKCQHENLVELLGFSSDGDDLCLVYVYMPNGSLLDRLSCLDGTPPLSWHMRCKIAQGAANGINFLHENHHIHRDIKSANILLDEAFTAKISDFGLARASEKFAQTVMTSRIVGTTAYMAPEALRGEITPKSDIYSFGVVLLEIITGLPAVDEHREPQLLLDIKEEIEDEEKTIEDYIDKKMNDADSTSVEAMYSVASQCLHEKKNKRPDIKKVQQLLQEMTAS

What is called IC50 is the concentration that inhibits the measured activity by half. The low end stands for greater potency in that assay, the high end for weaker potency in that assay. As a reminder, the EC50 is the concentration giving half of the maximal effect. Low values mean higher potency in that assay, high ones lower potency in that assay. Consider `N[C@H](c1cccc(-c2ccc3cnn(-c4cccc(C(F)F)n4)c3c2)n1)[C@H]1C[C@@H](O)C1` [Compound 14, cis-3-((S)-amino(6-(1-(6-(difluoromethyl)pyridin-2-yl)-1H-indazol-6-yl)pyridin-2-yl)methyl)cyclobutanol], for which, at IRAK4, the IC50 is no more than 100 nM. Also, the EC50 with A549 cells (Homo sapiens, A549, A549 cells) was no more than 1000 nM.
The compound `CCc1cncc(-n2ncc3ccc(-c4cccc([C@@H](N)[C@H]5C[C@@H](O)C5)n4)cc32)n1` [Compound 15, (1R,3s)-3-((S)-amino(6-(1-(6-ethylpyrazin-2-yl)-1H-indazol-6-yl)pyridin-2-yl)methyl)cyclobutanol] returned a 50% inhibitory concentration (IC50) against IRAK4 of no more than 100 nM. Moreover, in the assay on A549 cells (Homo sapiens, A549, A549 cells), the concentration for a half-maximal effect (EC50) was no more than 1000 nM.
As to `N[C@H](c1cccc(-c2ccc3cnn(-c4cccc(CF)n4)c3c2)n1)[C@H]1C[C@@H](O)C1` [Compound 16, (1R,3s)-3-((S)-amino(6-(1-(6-(fluoromethyl)pyridin-2-yl)-1H-indazol-6-yl)pyridin-2-yl)methyl)cyclobutanol], at IRAK4, the 50% inhibitory concentration (IC50) is no more than 100 nM. This compound registered an EC50 in the assay on A549 cells (Homo sapiens, A549, A549 cells) of no more than 1000 nM.
The compound `N[C@H](c1cncc(-c2ccc3cnn(-c4cccc(CO)n4)c3c2)n1)[C@H]1C[C@@H](O)C1` [Compound 17, cis-3-((S)-amino(6-(1-(6-(hydroxymethyl)pyridin-2-yl)-1H-indazol-6-yl)pyrazin-2-yl)methyl)cyclobutanol] yielded a 50% inhibitory concentration (IC50) against IRAK4 of no more than 100 nM. In addition, the EC50 with A549 cells (Homo sapiens, A549, A549 cells) is no more than 1000 nM.
`N[C@H](c1cccc(-c2cc(OCC(F)F)c3cnn(-c4cccc(CO)n4)c3c2)n1)[C@H]1C[C@@H](O)C1` [Compound 24, (1R,3s)-3-((S)-amino(6-(4-(2,2-difluoroethoxy)-1-(6-(hydroxymethyl)pyridin-2-yl)-1H-indazol-6-yl)pyridin-2-yl)methyl)cyclobutanol] yielded an IC50 on IRAK4 of no more than 100 nM. In the assay with A549 cells (Homo sapiens, A549, A549 cells), the 50% effective concentration (EC50) was no more than 1000 nM.
In turn, `CC(O)c1ccnc(-n2ncc3ccc(-c4cccc([C@@H](N)[C@H]5C[C@@H](O)C5)n4)cc32)n1` (stereo partly drawn) [Compound 25, (1R,3s)-3-((1S)-amino(6-(1-(4-(1-hydroxyethyl)pyrimidin-2-yl)-1H-indazol-6-yl)pyridin-2-yl)methyl)cyclobutanol] had an IC50 against IRAK4 of no more than 100 nM. The EC50 with A549 cells (Homo sapiens, A549, A549 cells) was in the range of 1000 to 10000 nM.
On IRAK4, `N[C@H](c1cccc(-c2ccc3cnn(-c4cccc(CO)n4)c3c2)n1)C1CC(F)(F)C1` [Compound 26, (S)-(6-(6-(6-(amino(3,3-difluorocyclobutyl)methyl)pyridin-2-yl)-1H-indazol-1-yl)pyridin-2-yl)methanol] had an IC50 of no more than 100 nM. Moreover, in the assay with A549 cells (Homo sapiens, A549, A549 cells), the EC50 was no more than 1000 nM.
`N[C@@H](c1cccc(-c2ccc3cnn(-c4cccc(CO)n4)c3c2)n1)C1CC(F)(F)C1` [Compound 27, (R)-(6-(6-(6-(amino(3,3-difluorocyclobutyl)methyl)pyridin-2-yl)-1H-indazol-1-yl)pyridin-2-yl)methanol] registered a concentration for half-maximal inhibition (IC50) against IRAK4 of no more than 100 nM. In the assay on A549 cells (Homo sapiens, A549, A549 cells), this compound yielded an EC50 of no more than 1000 nM.
As for `N[C@H](c1cccc(-c2ccc3cnn(-c4nccc(CO)n4)c3c2)n1)C1CC(F)(F)C1` [Compound 28, (S)-(2-(6-(6-(amino(3,3-difluorocyclobutyl)methyl)pyridin-2-yl)-1H-indazol-1-yl)pyrimidin-4-yl)methanol], at IRAK4, the IC50 is no more than 100 nM. The same compound showed an EC50 with A549 cells (Homo sapiens, A549, A549 cells) of no more than 1000 nM.
`N[C@H](c1cccc(-c2ccc3cnn(-c4cccc(CF)n4)c3c2)n1)C1CC(F)(F)C1` [Compound 29, (S)-(3,3-difluorocyclobutyl)(6-(1-(6-(fluoromethyl)pyridin-2-yl)-1H-indazol-6-yl)pyridin-2-yl)methanamine] came in with an IC50 against IRAK4 of no more than 100 nM. In the assay on A549 cells (Homo sapiens, A549, A549 cells), this compound registered an EC50 of no more than 1000 nM.
Turning to `N[C@H](c1cccc(-c2ccc3cnn(-c4cccc(C(F)F)n4)c3c2)n1)C1CC(F)(F)C1` [Compound 30, (S)-(3,3-difluorocyclobutyl)(6-(1-(6-(difluoromethyl)pyridin-2-yl)-1H-indazol-6-yl)pyridin-2-yl) methanamine], the IC50 on IRAK4 is no more than 100 nM. The compound further came in with an EC50 in the assay on A549 cells (Homo sapiens, A549, A549 cells) of no more than 1000 nM.
In turn, `CCOc1cc(-c2cccc([C@H](N)C3CC(F)(F)C3)n2)cc2c1cnn2-c1cccc(CO)n1` [Compound 33, (R)-(6-(6-(6-(amino(3,3-difluorocyclobutyl)methyl)pyridin-2-yl)-4-ethoxy-1H-indazol-1-yl)pyridin-2-yl)methanol] returned a half-maximal inhibitory concentration (IC50) at IRAK4 of no more than 100 nM. This compound also returned an EC50 with A549 cells (Homo sapiens, A549, A549 cells) of no more than 1000 nM.
On to `CCOc1cc(-c2cccc([C@@H](N)C3CC(F)(F)C3)n2)cc2c1cnn2-c1cccc(CO)n1` [Compound 34, (S)-(6-(6-(6-(amino(3,3-difluorocyclobutyl)methyl)pyridin-2-yl)-4-ethoxy-1H-indazol-1-yl)pyridin-2-yl)methanol], for which the half-maximal inhibitory concentration (IC50) against IRAK4 is no more than 100 nM. In the assay with A549 cells (Homo sapiens, A549, A549 cells), this compound gave an EC50 of no more than 1000 nM.
For `N[C@H](c1cccc(-c2ccc3cnn(-c4cccc(C(F)F)n4)c3c2)n1)C1CC(O)C1` (stereo partly drawn) [Compound 35a, 3-((S)-amino(6-(1-(6-(difluoromethyl)pyridin-2-yl)-1H-indazol-6-yl)pyridin-2-yl)methyl)cyclobutan-1-ol], in that order: no more than 100 nM and no more than 1000 nM.
Take `CCc1cccc(-n2ncc3ccc(-c4cccc([C@@H](N)C5CC(O)C5)n4)cc32)n1` (stereo partly drawn) [Compound 35b, 3-((S)-amino(6-(1-(6-ethylpyridin-2-yl)-1H-indazol-6-yl)pyridin-2-yl)methyl)cyclobutan-1-ol]: at IRAK4, the half-inhibitory concentration (IC50) was no more than 100 nM. This compound also gave a concentration for a half-maximal effect (EC50) in the assay on A549 cells (Homo sapiens, A549, A549 cells) of 1000 to 10000 nM.
`COc1cccc(-n2ncc3ccc(-c4cccc([C@@H](N)C5CC(O)C5)n4)cc32)n1` (stereo partly drawn) [Compound 35e, (S)-3-(amino(6-(1-(6-methoxypyridin-2-yl)-1H-indazol-6-yl)pyridin-2-yl)methyl)cyclobutan-1-ol] yielded a 50% inhibitory concentration (IC50) against IRAK4 of 100 to 1000 nM. Also, in the assay with A549 cells (Homo sapiens, A549, A549 cells), the 50% effective concentration (EC50) lay in the range of 1000 to 10000 nM.
`CC1(O)CC([C@H](N)c2cccc(-c3ccc4cnn(-c5cccc(CF)n5)c4c3)n2)C1` (stereo partly drawn) [Compound 35f, 3-((S)-amino(6-(1-(6-(fluoromethyl)pyridin-2-yl)-1H-indazol-6-yl)pyridin-2-yl)methyl)-1-methylcyclobutan-1-ol]: on IRAK4, the half-maximal inhibitory concentration (IC50) is no more than 100 nM. Moreover, the EC50 in the assay on A549 cells (Homo sapiens, A549, A549 cells) fell in the range of 1000 to 10000 nM.
The matching figures for `CC1(O)CC([C@H](N)c2cccc(-c3ccc4cnn(-c5cccc(C(F)F)n5)c4c3)n2)C1` (stereo partly drawn) [Compound 35g, 3-((S)-amino(6-(1-(6-(difluoromethyl)pyridin-2-yl)-1H-indazol-6-yl)pyridin-2-yl)methyl)-1-methylcyclobutan-1-ol]: no more than 100 nM and no more than 1000 nM.
For `COC1CC([C@H](N)c2cccc(-c3ccc4cnn(-c5cccc(C(F)F)n5)c4c3)n2)C1` (stereo partly drawn) [Compound 35h, (S)-(6-(1-(6-(difluoromethyl)pyridin-2-yl)-1H-indazol-6-yl)pyridin-2-yl)(3-methoxycyclobutyl)methanamine], in that order: no more than 100 nM and no more than 1000 nM.
On to `CC1(O)CC([C@H](N)c2cccc(-c3ccc4cnn(-c5cccc(CF)n5)c4c3)n2)C1` (stereo partly drawn) [Compound 35i, 3-((S)-amino(6-(1-(6-(fluoromethyl)pyridin-2-yl)-1H-indazol-6-yl)pyridin-2-yl)methyl)-1-methylcyclobutan-1-ol], for which, at IRAK4, the 50% inhibitory concentration (IC50) was 100 to 1000 nM. The 50% effective concentration (EC50) with A549 cells (A549 cells) was 1000 to 10000 nM.
Consider `O=C(Nc1nc2ccccc2n1CCN1CCOCC1)c1cccc([N+](=O)[O-])c1` [IRAK-1/4 inhibitor I], for which, in the assay on primary human astrocytes, the “interleukin-1β-induced secretion of MCP-1” value is given as “reduced” and the “interleukin-1β-induced secretion of interleukin 6” value is on record as “reduced”. For the same compound, the “in vitro uptake of amyloid β (Aβ)” value in the assay with astrocytes and microglia is recorded as “not affected”. Also, the “lipopolysaccharide-induced secretion of monocyte chemotactic protein-1 (MCP-1)” value with primary human microglia is given as “reduced”.

The record behind these values is patent publication US11427561B2, “IRAK4 inhibiting agents” (BIOGEN MA INC., priority 2016, dated 2022).
